Results taken from ChEMBL document CHEMBL1122188, “A quantitative structure-activity relationship study of the inhibitory action of a series of enkephalin-like peptides in the guinea pig ileum and mouse vas deferens bioassays” (J Med Chem, 1982).
Non-standard residues stand in square brackets, D forms with d. Residues, ends and D or L forms follow the SMILES beside them. Cha = N[C@@H](CC1CCCCC1)C(=O)O

Columns and labels:
Settings in all cases: read-out: Log 1/IC50 (converted)
Mus musculus = species on record: Mus musculus; experiment: (§1) Inhibitory activity contractions of electrically stimulated mouse vas deferens was determined; assay type: functional, organism-based
Cavia porcellus = species on record: Cavia porcellus; experiment: Inhibitory activity for contractions of electrically stimulated guinea pig ileum was determined; assay type: functional, organism-based
[1] = target: Delta-type opioid receptor (Mus musculus, UniProt P32300); experiment: as §1; assay type: functional, tissue-based
Sequence of Delta-type opioid receptor (P32300 whole entry): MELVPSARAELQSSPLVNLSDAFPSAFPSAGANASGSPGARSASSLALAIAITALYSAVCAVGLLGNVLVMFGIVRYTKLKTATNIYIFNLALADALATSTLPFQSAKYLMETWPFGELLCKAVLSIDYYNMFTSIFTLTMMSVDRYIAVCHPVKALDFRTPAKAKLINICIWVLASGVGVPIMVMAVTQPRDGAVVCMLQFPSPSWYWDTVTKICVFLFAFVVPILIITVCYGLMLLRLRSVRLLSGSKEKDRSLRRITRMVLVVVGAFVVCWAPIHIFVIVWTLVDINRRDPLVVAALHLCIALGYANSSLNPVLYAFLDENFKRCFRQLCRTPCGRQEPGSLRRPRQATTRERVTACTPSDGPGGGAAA

Structure (SMILES)	IC50 (Mus musculus) [nM]	IC50 (Cavia porcellus) [nM]	IC50 [1] [nM]
CC(C)C[C@H](NC(=O)[C@H](Cc1ccccc1)NC(=O)CNC(=O)[C@H](C)NC(=O)[C@@H](N)Cc1ccc(O)cc1)C(N)=O	9.55	11.2	–
CC(C)C[C@H](NC(=O)[C@H](CC1CCCCC1)NC(=O)CNC(=O)[C@H](C)NC(=O)[C@@H](N)Cc1ccc(O)cc1)C(N)=O (HELM PEPTIDE1{Y.A.G.[Cha].L.[am]}$$$$V2.0)	–	91.2	–
C[C@H](NC(=O)[C@@H](N)Cc1ccc(O)cc1)C(=O)NCC(=O)N[C@@H](Cc1ccccc1)C(=O)N[C@H](C(N)=O)C(C)(C)C (HELM PEPTIDE1{Y.A.G.F.[CC(C)(C)[C@H](N[*:1])C(=O)[*:2]].[am]}$$$$V2.0)	–	11.7	9.77
CC(C)C[C@H](NC(=O)[C@H](Cc1ccc([N+](=O)[O-])cc1)NC(=O)CNC(=O)[C@H](C)NC(=O)[C@@H](N)Cc1ccc(O)cc1)C(N)=O	–	3.16	–
CC(C)C[C@H](NC(=O)[C@H](CC12CC3CC(CC(C3)C1)C2)NC(=O)CNC(=O)[C@H](C)NC(=O)[C@@H](N)Cc1ccc(O)cc1)C(N)=O (HELM PEPTIDE1{Y.A.G.[O=C([C@H](CC12CC3CC(CC(C3)C1)C2)N[*:1])[*:2]].L.[am]}$$$$V2.0)	–	1000	2950
C[C@H](NC(=O)[C@@H](N)Cc1ccc(O)cc1)C(=O)NCC(=O)N[C@@H](Cc1ccc([N+](=O)[O-])cc1)C(=O)N[C@@H](CC12CC3CC(CC(C3)C1)C2)C(N)=O	–	3.8	20.4
C[C@H](NC(=O)[C@@H](N)Cc1ccc(O)cc1)C(=O)NCC(=O)N[C@@H](Cc1ccccc1)C(=O)N[C@@H](CC12CC3CC(CC(C3)C1)C2)C(N)=O (HELM PEPTIDE1{Y.A.G.F.[O=C([C@H](CC12CC3CC(CC(C3)C1)C2)N[*:1])[*:2]].[am]}$$$$V2.0)	–	6.03	50.1
COc1ccc(C[C@H](N)C(=O)N[C@@H](C)C(=O)NCC(=O)N[C@@H](CC2CCCCC2)C(=O)N[C@@H](CCSC)C(N)=O)cc1 (H-Y(Me)AG[Cha]M-NH2)	–	72.4	–
CSCC[C@H](NC(=O)[C@H](Cc1ccccc1)NC(=O)CNC(=O)[C@H](C)NC(=O)[C@@H](N)Cc1ccc(O)cc1)C(N)=O	–	11.5	–
COc1ccc(C[C@H](N)C(=O)N[C@@H](C)C(=O)NCC(=O)N[C@@H](Cc2ccc([N+](=O)[O-])cc2)C(=O)N[C@@H](CCSC)C(N)=O)cc1	–	2.29	3.16
C[C@H](NC(=O)[C@@H](N)Cc1ccc(O)cc1)C(=O)NCC(=O)N[C@@H](Cc1ccc([N+](=O)[O-])cc1)C(=O)N[C@@H](CCC(C)(C)C)C(N)=O	–	1.91	–
